# In patent US20120040956A1, “INHIBITORS OF HIF-1 PROTEIN ACCUMULATION” (INTERMED DISCOVERY GMBH, priority 2008, published 2012):
# Columns and labels:
# [1] = test system: cell-free protein translation (BMV mRNA, ribosomes); test: Cell-free protein translation of Brome mosaic virus (BMV) mRNA with ribosomes; assay type: biochemical; details: relevant (nM) concentrations, SDS-PAGE
# Description: The effect of IMD-019064 on cell-free protein translation in vitro was investigated (see also assay principle in FIG. 8). Brome mosaic virus (BMV) mRNA encoding for 4 different viral proteins was incubated with ribosomes in the presence and absence of IMD-019064 (FIG. 9a), IMD-026259, IMD-026260 (FIG. 9b), or cycloheximide (Chx, 10 μM) (positive control) and the formed proteins analyzed by SDS-PAGE.
# Panels show representative SDS-PAGE protein gels. Vehicle-containing translation reactions (Veh) represent 100% translation efficacy, while Cycloheximide (Chx; 10 μg/ml) a known inhibitor of protein translation that was used as a positive control does show significant protein reduction.
# HIF-1α protein = test: Hypoxia induced HIF-1α protein accumulation in 293T cells (immunoblotting); assay type: cell-based, human; details: 250 nM, 1 h preincubation, hypoxia 4 h, 1% O2
# Description: Effects of IMD-026259, IMD-026260 and IMD-019064 on the stabilisation/accumulation of HIF-1α protein were investigated. 293T cells were preincubated with the indicated concentrations of all three compounds. After 1 h of pre-incubation, 293T cells were pre-incubated with the indicated concentrations of compounds and then further incubated under normoxic or hypoxic (4 h, 1% O2) conditions respectively. After lysis of cells in 1×SDS sample buffer and sonication, the samples were analyzed for HIF-1α abundance by immunoblotting.
# HIF-1α mRNA = test: Hif-1α mRNA expression by real-time PCR; assay type: cell-based; details: human cells, 250 nM for 3 h, normoxic or hypoxic (45 minutes, 1% O2)
# Description: In order to investigate whether the compounds of the invention do exert their HIF-1-1 suppressive action via inhibition of HIF-1-1 transcription the compounds were tested for their effects on HIF-1α mRNA production. In all experiments, human cells were exposed to efficiently blocking concentrations (250 nM) of the test compounds for 3 h. Then cells were further cultivated under normoxic or hypoxic conditions (45 minutes, 1% O2) respectively. Afterwards cell samples were harvested and RNA was extracted. cDNA was synthesized using specific primers and the PE Applied Biosystems Reverse Transcription Reagents. Real-time PCR was performed by using the SYBR Green I detection chemistry (Applied Biosystems) and an ABI Prism 7300 system. The expression of Hif-1α was quantified and results were normalized to Hprt1 and β-Actin (“housekeeping-gene”) expression. The relative abundance of the different genes was calculated by the comparative CT method. HIF-1α transcription of normoxic control cells was arbitrarily set to 1. […] Therefore an effect of IMD-compounds on HIF-1-dependent gene expression seems not to be mediated on HIF-1α transcription (FIG. 5).
# [2] = test system: human vasculature (CD34 positive vessels) from transplanted HUVECs; test: Spheroid-based in vivo angiogenesis assay in SCID mice; details: 0.3 mg/ml p.o. every 3rd day, pvalue=0.0001
# Excerpt: Human endothelial cells (ECs; HUVECs) are applied subcutaneously in (n=10) SCID mice embedded in extracellular matrix components in the presence of smooth muscle cells (SMCs) and fibroblasts (NHDFs). The transplanted human ECs (EC spheroids in combination with ECs in suspension) form a complex and perfused three dimensional network of capillaries of human origin that is anastomosed (connected with) with the mouse vasculature and host (mouse) pericyte-covered. The quality of the newly formed vasculature is monitored by micro vessel density counting. Aim of the study is to investigate the anti-angiogenic potential of the test items in the spheroid-based in vivo angiogenesis assay. […]
# In the standard assay (with VEGF-A and FGF-2 stimulation and only ECs) the first perfused vessels are usually detected at day 4 to day 6. […]
# For histological examination of the human vasculature, paraffin sections (thickness=8-10 μm) were prepared from all plugs. Blood vessel formation was detected by staining the sections for human CD34 (NCL-END, Menarini, Berlin, Germany). Three sections per plug were analysed and three images were taken from each section at a magnification of 200× using the Eclipse TE2000-U microscope (Nikon, Kanagawa, Japan). The area analyzed per section (three images) was 0.44 mm^2. […]
compound,measurement,setting,value
"CNCCOc1ccc2c(c1)OC1(c3ccc(Cl)cc3)C(c3ccccc3)CC(O)C21O (stereo not shown) [IMD-026260, (1,3a,8b)-3a-(4-chlorophenyl)-6-(2-(methylamino)ethoxy)-3-phenyl-2,3,3a,8b-tetrahydro-1H-benzo[d]cyclopenta[b]furan-1,8b-diol]",effect on in vitro protein translation,[1],No significant effect
same,block of HIF-1α protein accumulation,HIF-1α protein,almost completely block
same,effect on Hif-1α mRNA production,HIF-1α mRNA,did not show any effects
same,reduction of human vessel number compared to a vehicle control,[2],42%
